Here are results for 4 compounds from ChEMBL document CHEMBL3734689, “Enzyme kinetics and inhibition of histone acetyltransferase KAT8” (Eur J Med Chem, 2015).

The assay deals with T1, Histone acetyltransferase KAT8 (Homo sapiens, UniProt Q9H7Z6).
T1 sequence (Q9H7Z6 whole entry): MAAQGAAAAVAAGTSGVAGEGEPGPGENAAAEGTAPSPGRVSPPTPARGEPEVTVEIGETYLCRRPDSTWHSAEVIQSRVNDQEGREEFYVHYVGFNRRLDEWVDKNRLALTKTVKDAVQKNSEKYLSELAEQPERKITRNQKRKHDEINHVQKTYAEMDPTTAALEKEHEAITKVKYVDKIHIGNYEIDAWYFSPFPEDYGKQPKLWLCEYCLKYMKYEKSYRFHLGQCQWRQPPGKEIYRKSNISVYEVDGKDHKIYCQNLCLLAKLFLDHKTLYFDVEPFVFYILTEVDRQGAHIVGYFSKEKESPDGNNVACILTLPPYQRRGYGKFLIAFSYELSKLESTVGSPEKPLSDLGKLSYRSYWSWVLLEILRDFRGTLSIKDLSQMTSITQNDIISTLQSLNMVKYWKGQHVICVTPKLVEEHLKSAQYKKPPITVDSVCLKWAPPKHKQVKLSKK
The assay is described as follows: Inhibition of recombinant N-terminal His6-tagged KAT8 (unknown origin) expressed in Escherichia Coli BL21 DE3 cells assessed as reduction of Co A level using histone H4 substrate after 15 mins by CPM fluorescence assay.
In the case of `O=C(O)c1c(O)cccc1CCCCCCCCCCCO`, the Ki – broadly, a dissociation constant, usually derived from enzyme kinetics or from competition with a known ligand – is 157 µM.
To `CCCCCCCCCCCCCCCc1ccc(O)c(C(=O)O)c1` belongs 79 µM; to `CCCCCCCCCCc1ccc(O)c(C(=O)O)c1`, 57 µM.
Next, `CCCCCCCCCCc1cccc(O)c1C(=O)O`: 37 µM.
